Some test systems named below: NCI/ADR-RES ovarian; SK-MEL-28 melanoma; HL-60(TB) leukemia; A498 renal; NCI-H460 lung; U251 CNS; K-562 leukemia; MOLT-4 leukemia; SF-268 CNS; SW-620 colon.
Assay in all cases: NCI anticancer screen, dose series, 48 h

The structures appear in SMILES notation. Where “and” joins values, the source holds several entries; their conditions need not be identical. Equal entries are not always repeated.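 Exposure lasted 48 hours, with cells grown in 96-well plates and compounds tested at five concentrations. At the GI50, growth is halved. Definition used: TGI = concentration required for complete inhibition of growth.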 Bounds are passed on as bounds.

Experimental findings from PubChem BioAssay (NCI) are described below.

Take `C/C1=C\C/C=C(\C)[C@H]2CC(CC/C(C)=C/CC1)[C@@](C)(CO)O2`: the GI50 is above 100 µM with NCI/ADR-RES ovarian; above 100 µM in the assay with SK-MEL-28 melanoma; 16.8 µM with HL-60(TB) leukemia; 54.1 µM with A498 renal; 74.4 µM in the assay with NCI-H460 lung; 84.2 µM with U251 CNS. The GI50 in the assay on K-562 leukemia is 28.4 µM; in the assay on MOLT-4 leukemia it was 23.5 µM; with SF-268 CNS, 80.6 µM; with SW-620 colon, 52.9 µM. For the same molecule, the TGI was above 100 µM in the assay with NCI/ADR-RES ovarian; above 100 µM in the assay with SK-MEL-28 melanoma; 51.1 µM in the assay on HL-60(TB) leukemia; above 100 µM in the assay with A498 renal; above 100 µM in the assay with NCI-H460 lung; above 100 µM with U251 CNS. In addition, the TGI in the assay with K-562 leukemia, in the assay with MOLT-4 leukemia, with SF-268 CNS and with SW-620 colon was above 100 µM each time.
`CC(=O)OC1CCC2(C)C(CCC3C4CC=C(C(C)=O)C4(C)OC(=O)CC32)C1` (stereo not drawn): the GI50 in the assay on NCI/ADR-RES ovarian was 3.45 µM; in the assay with SK-MEL-28 melanoma, 1.74 µM; with HL-60(TB) leukemia, 2.05 µM; in the assay on A498 renal, 6.59 µM; in the assay on NCI-H460 lung, 5.02 µM; with U251 CNS, 10.1 µM. For the same molecule, the GI50 was 3.35 µM with K-562 leukemia, 2.29 µM in the assay on MOLT-4 leukemia, 5.2 µM in the assay on SF-268 CNS and 1.52 µM in the assay on SW-620 colon. Besides, the TGI in the assay on NCI/ADR-RES ovarian came to 13 µM; in the assay on SK-MEL-28 melanoma, 3.27 µM; in the assay with HL-60(TB) leukemia, 5.05 µM; in the assay on A498 renal, 19.9 µM; with NCI-H460 lung it was 19.3 µM; in the assay on U251 CNS it was 21.8 µM. Also, the TGI was 10.3 µM with K-562 leukemia, 6.41 µM in the assay on MOLT-4 leukemia, 17.8 µM in the assay with SF-268 CNS and 3.43 µM in the assay with SW-620 colon.
Consider `CC1(C)CC(=O)c2c(ccc(C(=O)C[C@H](N)CO)c2N)O1`, for which the GI50 with NCI/ADR-RES ovarian is > 17.5 µM and 7.51 µM; in the assay with HL-60(TB) leukemia it was 8.45 µM and 6.34 µM; in the assay on A498 renal, 2.86 µM and 6.73 µM; with NCI-H460 lung, 0.89 µM and 0.129 µM; in the assay on U251 CNS it was 1.47 µM and 0.247 µM; in the assay on K-562 leukemia, 2.27 µM and 0.251 µM. For the same molecule, the GI50 in the assay with MOLT-4 leukemia was 1.61 µM and 0.177 µM; in the assay with SF-268 CNS, 5.03 µM and 0.594 µM; with SW-620 colon it was 0.647 µM and 0.117 µM. Further, the TGI with NCI/ADR-RES ovarian was above 33.3 µM; in the assay with SK-MEL-28 melanoma it was 17.5 µM and > 33.3 µM; with HL-60(TB) leukemia, 17.5 µM and > 33.3 µM; in the assay on A498 renal, 17.5 µM and > 33.3 µM; in the assay on NCI-H460 lung it was 17.5 µM and > 33.3 µM; with U251 CNS it was 17.5 µM and > 33.3 µM. The TGI in the assay on K-562 leukemia is 17.5 µM and > 33.3 µM; in the assay on MOLT-4 leukemia it was 17.5 µM and 26.7 µM; in the assay on SF-268 CNS, 17.5 µM and > 33.3 µM; in the assay with SW-620 colon it was 17.5 µM and > 33.3 µM.
Take `C[C@]12CCC3c4ccc(O)cc4CCC3C1Cc1ccc(O)cc12` (stereo partly drawn): the GI50 in the assay with NCI/ADR-RES ovarian is 2.35 µM; in the assay on SK-MEL-28 melanoma it was 8.72 µM; in the assay on HL-60(TB) leukemia, 1.08 µM; with A498 renal, 6.18 µM; in the assay with NCI-H460 lung, 4.88 µM; in the assay with U251 CNS, 5.24 µM. Further, the GI50 is 0.794 µM in the assay with K-562 leukemia, 11.4 µM in the assay on SF-268 CNS and 3.7 µM with SW-620 colon. Further, the TGI with NCI/ADR-RES ovarian was determined as 6.74 µM; with SK-MEL-28 melanoma it was 22.7 µM; in the assay with HL-60(TB) leukemia, 3.29 µM; with A498 renal, 19.7 µM; in the assay on NCI-H460 lung, 18.2 µM; in the assay on U251 CNS it was 17.4 µM. Further, the TGI in the assay on K-562 leukemia was found to be 11.2 µM; in the assay with MOLT-4 leukemia, 0.478 µM; with SF-268 CNS it was 44.2 µM; in the assay on SW-620 colon it was 14.9 µM.
For `CCCCCCCCCCCC[n+]1ccccc1`, the GI50 in the assay with NCI/ADR-RES ovarian is 14.9 µM; with SK-MEL-28 melanoma it was 1.68 µM; in the assay on HL-60(TB) leukemia it was 0.422 µM; in the assay with A498 renal, 1.57 µM; in the assay with NCI-H460 lung, 1.76 µM; in the assay with U251 CNS it was 0.997 µM. The GI50 was 0.415 µM in the assay on K-562 leukemia, 1.17 µM in the assay on MOLT-4 leukemia, 1.58 µM in the assay on SF-268 CNS and 2 µM in the assay with SW-620 colon. Further, the TGI in the assay on NCI/ADR-RES ovarian is 50.7 µM; in the assay with SK-MEL-28 melanoma, 5.12 µM; in the assay on HL-60(TB) leukemia it was 1.99 µM; in the assay with A498 renal, 7.48 µM; with NCI-H460 lung, 4.58 µM; with U251 CNS, 2.44 µM. Further, the TGI worked out at 11.4 µM in the assay on K-562 leukemia, 3.66 µM with MOLT-4 leukemia, 5.67 µM in the assay with SF-268 CNS and 10.5 µM in the assay on SW-620 colon.
Regarding `CC1(O)CC2(O)C=CC3=C(C(=O)c4cccc(O)c4C3=O)C2(O)C(=O)C1O` (stereo not drawn), the TGI in the assay on NCI/ADR-RES ovarian is 20.2 µM; in the assay with SK-MEL-28 melanoma it was 3.2 µM; with HL-60(TB) leukemia it was 2.17 µM; with A498 renal, 14.9 µM; in the assay with NCI-H460 lung, 34.3 µM; in the assay on U251 CNS, 9.81 µM. The TGI came out at 10.4 µM in the assay with K-562 leukemia, 2.8 µM with MOLT-4 leukemia, 17.1 µM in the assay with SF-268 CNS and 1.67 µM in the assay with SW-620 colon.
Take `CN1CCN(Cc2ccc(NC(=O)c3nc4ccc5[nH]ncc5c4c4c3CCC4)cc2C(F)(F)F)CC1`: the GI50 in the assay with NCI/ADR-RES ovarian was 0.931 µM; with SK-MEL-28 melanoma, 0.899 µM; with HL-60(TB) leukemia, 1.06 µM; with A498 renal it was 6.62 µM; with NCI-H460 lung, 0.926 µM; in the assay on U251 CNS, 0.875 µM. The GI50 in the assay on K-562 leukemia was 0.978 µM; in the assay on MOLT-4 leukemia, 1.1 µM; with SF-268 CNS, 7.97 µM; in the assay with SW-620 colon, 0.975 µM. Also, the TGI was determined as 2.14 µM with NCI/ADR-RES ovarian; 1.62 µM in the assay on SK-MEL-28 melanoma; 2.28 µM in the assay on HL-60(TB) leukemia; 13.4 µM in the assay on A498 renal; 1.73 µM with NCI-H460 lung; 1.6 µM in the assay on U251 CNS. In addition, the TGI was 2.39 µM in the assay on K-562 leukemia, 2.58 µM in the assay with MOLT-4 leukemia, 16.5 µM with SF-268 CNS and 2.03 µM with SW-620 colon.
For `O=C(O)CCCSc1nc2ccccc2s1`, the TGI in the assay with NCI/ADR-RES ovarian, in the assay with SK-MEL-28 melanoma, with HL-60(TB) leukemia, with A498 renal, in the assay on NCI-H460 lung and with U251 CNS was above 100 µM in each case. For the same molecule, the TGI with K-562 leukemia, in the assay on MOLT-4 leukemia, in the assay with SF-268 CNS and in the assay with SW-620 colon was above 100 µM each time.
Turning to `O=C(NNc1ccccc1)OCc1ccccc1`, the GI50 with NCI/ADR-RES ovarian is 21.1 µM; in the assay with SK-MEL-28 melanoma it was 98.3 µM; in the assay on HL-60(TB) leukemia, 3.55 µM; in the assay with A498 renal it was 13.3 µM; in the assay with NCI-H460 lung it was 4.43 µM; with U251 CNS it was 70.6 µM. The GI50 in the assay on K-562 leukemia is 1.94 µM; in the assay on MOLT-4 leukemia, 5.89 µM; with SF-268 CNS, 9.27 µM; in the assay with SW-620 colon it was 2.14 µM. The TGI with NCI/ADR-RES ovarian is above 100 µM; with SK-MEL-28 melanoma it was above 100 µM; in the assay on HL-60(TB) leukemia it was 58.7 µM; in the assay with A498 renal it was above 100 µM; in the assay on NCI-H460 lung, above 100 µM; in the assay with U251 CNS it was above 100 µM. The TGI with K-562 leukemia, in the assay with MOLT-4 leukemia, in the assay with SF-268 CNS and in the assay with SW-620 colon was above 100 µM each time.
For the molecule `COc1cc(Cn2ccc3c2-c2oncc2CC3)cc(OC)c1`, the GI50 with NCI/ADR-RES ovarian was 1.95 µM; with SK-MEL-28 melanoma, 8.75 µM; in the assay on HL-60(TB) leukemia it was 2.22 µM; with A498 renal, 1.16 µM; in the assay on NCI-H460 lung it was 3.11 µM; in the assay on U251 CNS it was 4.43 µM. Also, the GI50 with K-562 leukemia is 0.594 µM; in the assay with MOLT-4 leukemia it was 4.09 µM; in the assay on SF-268 CNS it was 10.1 µM; in the assay with SW-620 colon, 2.18 µM. Besides, the TGI is 7.24 µM in the assay with NCI/ADR-RES ovarian; above 100 µM in the assay with SK-MEL-28 melanoma; 8.94 µM with HL-60(TB) leukemia; 6.99 µM in the assay with A498 renal; 13.3 µM in the assay with NCI-H460 lung; 69.3 µM with U251 CNS. In addition, the TGI in the assay on K-562 leukemia, in the assay with MOLT-4 leukemia, in the assay with SF-268 CNS and in the assay with SW-620 colon was above 100 µM each time.
Regarding `CCN(C(=O)CCl)C(C)(C)C(SSSC(c1ccc(Cl)cc1)C(C)(C)N(CC)C(=O)CCl)c1ccc(Cl)cc1` (stereo not drawn), the GI50 is 8.31 µM with NCI/ADR-RES ovarian; 2.05 µM with SK-MEL-28 melanoma; 2.1 µM with HL-60(TB) leukemia; 1.9 µM in the assay with A498 renal; 7.34 µM in the assay with NCI-H460 lung; 4.72 µM in the assay on U251 CNS. Moreover, the GI50 is 1.71 µM with K-562 leukemia, 4.46 µM with MOLT-4 leukemia, 10.5 µM in the assay with SF-268 CNS and 3.85 µM in the assay on SW-620 colon. Further, the TGI amounted to 24 µM in the assay on NCI/ADR-RES ovarian; 4.31 µM in the assay with SK-MEL-28 melanoma; 7.92 µM in the assay with HL-60(TB) leukemia; 7.42 µM in the assay on A498 renal; 20.9 µM in the assay with NCI-H460 lung; 17.7 µM in the assay with U251 CNS. The TGI in the assay on K-562 leukemia was found to be 3.59 µM; in the assay with MOLT-4 leukemia it was 13.9 µM; in the assay on SF-268 CNS it was 23.9 µM; in the assay on SW-620 colon it was 14.6 µM.
Regarding `CN(C)C(=O)c1cc2cnc(Nc3ccc(-c4csc5c(=O)cc(N6CCNCC6)oc45)cc3)nc2n1C1CCCC1`, the GI50 in the assay on NCI/ADR-RES ovarian was 6.9 µM; in the assay with SK-MEL-28 melanoma, 2.14 µM; in the assay on HL-60(TB) leukemia, 0.271 µM; in the assay on A498 renal, 1.24 µM; in the assay on NCI-H460 lung, 0.814 µM; with U251 CNS it was 0.561 µM. The GI50 with K-562 leukemia was 0.456 µM; with MOLT-4 leukemia, 0.368 µM; with SF-268 CNS, 0.638 µM; with SW-620 colon it was 0.418 µM. Moreover, the TGI in the assay on NCI/ADR-RES ovarian was found to be 32.7 µM; in the assay on SK-MEL-28 melanoma, 6.88 µM; in the assay on HL-60(TB) leukemia, 1.72 µM; with A498 renal, 3.01 µM; in the assay on NCI-H460 lung, 2.35 µM; in the assay on U251 CNS, 1.96 µM. The TGI with K-562 leukemia came to 4.2 µM; with MOLT-4 leukemia, 2.11 µM; in the assay on SF-268 CNS it was 4.09 µM; in the assay with SW-620 colon, 2.09 µM.
